Laboratory results from patent US20180085392A1, “CYCLODEXTRIN COMPOUNDS FOR THE PREVENTION AND TREATMENT OF AGING” (SENS RESEARCH FOUNDATION, INC., priority 2015, published 2018).
Values joined by “and” are separate entries in the source; they are usually repeats but may differ in a detail not shown here. Identical values can stand only once.

Tests used:
[1] = test system: cholesterol present in a cell population; assay: Filipin staining of cellular cholesterol; type: cell-based; details: for cholesterol content of cells by filipin stain: after 4 days of maintenance, 100× (FIG. 11A-D)
Description: To further address the mechanism by which cyclodextrin treatment can decrease the concentration of lipofuscin in cells, filipin staining experiments were performed (FIG. 10A-D, FIG. 11A-D, and FIG. 12A-D). Filipin stain can be used to visualize the cholesterol present in a cell population. FIG. 10A and FIG. 10C provide representative photomicrographs of two different cell populations before confluency. Four days after the time the micrographs in FIG. 10A and FIG. 10C were produced, a filipin stain was applied to both cell populations (FIG. 10B and FIG. 10D), however, in the case of FIG. 10D, the cell population was treated with cyclodextrin for 3.5 hours before the filipin staining procedure. […] In order to measure the effects of long term cyclodextrin treatment, untreated healthy cells (NC), healthy cells treated with cyclodextrin (NC w/CD), untreated cells loaded with lipofuscin (PC), and cells loaded with lipofuscin and treated with cyclodextrin (PC w/CD) were filipin stained and imaged at 100× magnification after 4 days of maintenance (FIG. 11A-D) and were filipin stained and imaged at 200× magnification after 9 days of cell maintenance (FIG. 12A-D).

[2] = test system: human skin fibroblasts; assay: CCK-8 cell viability assay; type: cell-based; details: days 4, 7 and 10; NC+CD and T versus NC and PC
Description: In order to determine whether cells were still viable when treated with cyclodextrin, a CCK-8 assay was performed on cells (human skin fibroblasts, Coriell Cell Repositories, Catalog #GM00498) over the course of a 10 days period (FIG. 8). On each day 4, day 7, and day 10, the viability of the cells was ascertained through a CCK-8 assay whereby colorimetric change was indicative of change in the cell viability status. The cell populations tested on day 4, day 7, and day 10 were healthy negative control cells (NC), healthy cells treated with cyclodextrin (NC+CD), lipofuscin loaded cells (PC), and lipofuscin loaded cells treated with cyclodextrin (T). […] FIG. 8 also presents blanks that were used as controls (the blanks appear circled in red in FIG. 8).

[3] = test system: human skin cells (human fibroblast cells); assay: Flow cytometry of non-bisretinoid lipofuscin content per cell; type: cell-based; details: for total non-bisretinoid lipofuscin content, Average / total non-bisretinoid lipofuscin content, individual samples 1-4: 2HPβCD for five days
Text: Table 3 and FIG. 4 presents data obtained from the treatment of human fibroblast cells with 10 rng/ml 2HPβCD for five days.
The values of Table 3 represent total non-bisretinoid lipofuscin content measured in fluorescent units per cell using a BD FACSCANTO™ II flow cytometer (BD Biosciences, San Jose, Calif.). Measurements were made with a 488 nm blue argon laser with a 530/30 nm FITC band pass filter. The total cell population size for each individual sample measurement was n>15,000 cells.

[4] = test system: TFEB; assay: RT-PCR analysis of major lysosome genes; type: cell-based; details: NC w/CD and PC w/CD at day 10 compared to PC
Description: (§1) To address the mechanisms by which cyclodextrin treatment can remove lipofuscin from cells, a RT-PCR analysis of major lysosome genes was performed (FIG. 9). Healthy cells treated with cyclodextrin (“NC w/CD”), lipofuscin loaded cells (“PC”), and lipofuscin loaded cells treated with cyclodextrin (“PC w/CD”) were maintained for 10 days. Following the 10 day period, RT-PCR was performed on each cell population in order to ascertain the regulation status of the major lysosome genes ULK1, TFEB, and HMOX.

[5] = test system: ULK1; assay: RT-PCR analysis of major lysosome genes; type: cell-based; details: NC w/CD and PC w/CD at day 10 compared to PC
Description: as §1

[6] = test system: fibroblasts; assay: Confocal microscopy of lipofuscin in fibroblasts; type: cell-based; details: after 8 days (FIG. 5)
Text: FIG. 5 provides representative confocal photomicrographs wherein the accumulation of lipofuscin in fibroblasts that were either treated with HPβCD or were not treated with HPβCD was fluorescently imaged over the course of 8 days.

[7] = test system: fibroblasts; assay: Fluorescence imaging of native lipofuscin in fibroblasts; type: cell-based; details: for native lipofuscin autofluorescence versus untreated cells: fibroblasts maintained 16 days, cyclodextrin during days 1-8 (FIG. 7A-B)
Description: Healthy fibroblasts were passaged (˜P25) and grown to confluency in media. The cells in FIG. 7A (“untreated”) were maintained for 16 days; likewise, the cells in FIG. 7B (“treated”) were maintained for 16 days, however, cyclodextrin was added to the treated cells during days 1-8. Following the 16 day period of cell maintenance, lipofuscin levels were observed using fluorescence imaging as lipofuscin appears as a bright red autofluorescent material during fluorescence-based imaging. […] In order to ascertain whether or not the untreated or treated fibroblasts appeared healthy after the 16 day period of maintenance, both the untreated and treated fibroblasts were imaged with 60× magnification using light microscopy.

[8] = test system: NC and PC cell populations; assay: Cell survival after exposure to lysomotropic agent MSDH; type: cell-based; details: for cell survival after MSDH: 45 μM MSDH for 42 hours; for cell death after MSDH: 55 μM MSDH for 42 hours
Description: To further elucidate the mechanism by which cyclodextrin can decrease the concentration of lipofuscin in cells, an assay in which the lysomotropic agent MSDH was administered to cells in order to measure the effect of cyclodextrin administration on cellular health post-MSDH treatment was performed (FIG. 13A-D and FIG. 14A-D). FIG. 13A-D provides representative photomicrographs of NC, PC, NC w/CD, and PC w/CD cell populations after 42 hours of exposure to 45 μM of MSDH. […] FIG. 14A-D provides representative photomicrographs of NC (FIG. 14A), PC (FIG. 14B), NC w/CD (FIG. 14C), and PC w/CD (FIG. 14D) cell populations, respectively, after the populations were exposed to an increased level of MSDH for an increased […] (55 μM for 42 hours). […] The results of FIG. 14A-D were indicative of different degrees of lysosomal membrane cholesterol composition change pending cyclodextrin treatment and lipofuscin levels, with the aged lipofuscin loaded cells treated with cyclodextrin being the most resistant to MSDH treatment (FIG. 14D).

[9] = test system: THP-1 cells; assay: Acridine orange uptake assay for lysosomal membrane permeabilization; type: cell-based
Description: To prepare FIG. 3A-B, THP-1 cells were exposed to different LDL treatments over 7 days and then assessed for lysosomal membrane permeabilization using an acridine orange uptake assay. In FIG. 3A: Acridine orange was excited at 488 nm and emissions recorded at 633 and 520 nm. Higher signal intensities at 520 nm and lower intensities at 633 nm were indicative of lysosomal instability. 7KC-LDL induced lysosomal membrane permeabilization that was attenuated by HβCD that was added to samples on day 6. In FIG. 3B: Flow cytometry signal are presented as intensities as a percent of control (normal LDL-treated). […] Although both the 633 nm and 520 nm signal intensities decreased after HβCD amendment for oxLDL and 7KC-LDL, the decrease in the 520 nm signal was of greater magnitude, thereby indicating increased lysosomal stability.

[10] = test system: lipofuscin loaded cells (PC cells) (human skin fibroblasts); assay: Autofluorescence of lipofuscin loaded cells (removal of pre-existing lipofuscin); type: cell-based; details: PC cells treated day 5 to day 10 and further 48 hours; untreated 13%; p 0.05
Description: FIG. 6 provides representative quantified data of the autofluorescence of lipofuscin loaded cells (PC cells) (human skin fibroblasts, Coriell Cell Repositories, Catalog #GM00498) either untreated or treated with CD in order to track the removal of lipofuscin already present within the PC cells. To perform the assay, PC cells were allowed to grow for 5 days, and the PC cells were treated such that lipofuscin was produced only from day 1 through […]. After 5 days, one population of cells (“treated population”, PC+cyclodextrin in FIG. 6) was treated with cyclodextrin from day 5 to day 10, whereas a second population of cells (“untreated population”, PC only in FIG. 6) remained untreated from day 5 to day 10. On day 10, lipofuscin levels were measured for both cell populations. Following this measurement, the untreated population was placed in media only for 48 hours whereas the treated population was placed in media containing cyclodextrin for 48 hours. 48 hours following this transfer of the cell populations to their respective media, the lipofuscin levels of both the untreated and treated populations were again measured. […] The p-value comparing the percentage differences between the treated and untreated populations was 0.05. […]

[11] = test system: cultured cells; details: cited from earlier work
[12] = Aged Human Skin Cells + 2-HPCD (Test)
[13] = Human Skin Cells + 2-HPCD (Negative Control + Drug)

Q: What does the source list for 2-hydroxypropyl-β-cyclodextrin [HPβCD]?
A: cholesterol content of cells by filipin stain [1]: increased; cholesterol content of cells by filipin stain ([1]; listed as cyclodextrin): reduction of the cholesterol content; overall cellular levels of cholesterol by filipin stain ([1]; long term treatment, after 9 days of maintenance, 200× (FIG. 12A-D)): increase the overall cellular levels of cholesterol; total cholesterol by filipin stain ([1]; treated for 3.5 hours before staining (FIG. 10D vs 10B)): reduction in total cholesterol; cell viability, colorimetric change in CCK-8 assay [2]: no visible colorimetric difference; total non-bisretinoid lipofuscin content, Average [3, 12]: 6131 fluorescent units per cell; total non-bisretinoid lipofuscin content, individual samples 1-4 [3, 12]: 6278 fluorescent units per cell and 6453 fluorescent units per cell and 5982 fluorescent units per cell and 5809 fluorescent units per cell; total non-bisretinoid lipofuscin content, Average [3, 13]: 2600 fluorescent units per cell; total non-bisretinoid lipofuscin content, individual samples 1-4 [3, 13]: 2552 fluorescent units per cell and 2564 fluorescent units per cell and 2638 fluorescent units per cell and 2647 fluorescent units per cell; lipofuscin levels by flow cytometry fluorescence (in words) ([3]; aged human skin cells, 5-day treatment (FIG. 4)): decreased; reduction of non-bisretinoid lipofuscin ([3]; aged human skin cells, 5-day treatment, p<0.00001): 31.4%; regulation of TFEB [4]: no upregulation; regulation of ULK1 [5]: no upregulation; lipopigment accumulation (fluorescence) versus untreated fibroblasts [6]: lower lipopigment accumulation; appearance of treated fibroblasts by light microscopy ([7]; after 16 day period, 60× magnification (FIG. 7C-D)): appeared to be healthy; native lipofuscin autofluorescence versus untreated cells [7]: visibly decreased; native lipofuscin autofluorescence versus untreated cells ([7]; listed as cyclodextrin): significantly reduced; cell survival after MSDH ([8]; NC w/CD (healthy cells), untreated NC killed): able to survive; cell death after MSDH ([8]; NC w/CD (healthy cells), untreated NC complete death): moderate death; cell survival after MSDH ([8]; PC w/CD (lipofuscin loaded cells)): able to survive; cell death after MSDH ([8]; PC w/CD (lipofuscin loaded cells), untreated PC moderate death): no death; lysosomal destabilization/permeability caused by 7-ketocholesterol (7KC-LDL) ([9]; LDL treatments over 7 days, HβCD added on day 6 (FIG. 3A)): attenuated; 633 nm/520 nm ratio of acridine orange signal ([9]; nLDL, oxLDL and 7KC-LDL (FIG. 3B)): improved; decrease in autofluorescence from day 10 to day 12 [10]: 23%

Q: With methyl-β-cyclodextrin [MβCD] as the substance, how does the “efficiency of cholesterol removal compared with β-cyclodextrin” value [11] read?
A: Its value is “more efficient”.
